Source: patent US11998767B2, “Hand sanitizers with improved aesthetics and skin-conditioning to encourage compliance with hand hygiene guidelines” (GOJO Industries, Inc., priority 2014, dated 2024)

Assays:
[1] = system: Involucrin; experiment: Skin barrier biomarker gene expression, real-time RT-PCR, keratinocyte monolayer; assay type: cell-based, human; details: gene expression level, keratinocytes treated 24 hours; Control C KGM 100%; concentration differs per example
Protocol: (§1) An in vitro model was employed, using monolayer human dermal keratinocytes culture (KGM). Two controls were tested: the medium and inflammatory cytokines interleukin (IL-1b).
(§2) Skin Barrier: • Biomarkers: ABCA12, Involucrin, PPARδ • Using different concentration of ingredients to treat the keratinocyte for 24 hours • Collect the cells and prepare total RNA from the treated cells • Using Real-time RT-PCT to detect different barrier function related biomarker's gene expression level • Comparative Benchmark: Vitamin D3 (cholecalciferol) in three different concentrations
Involucrin is a protein component of human skin. It's a biomarker for keratinocyte differentiation. In binding the protein loricrin, involucrin contributes to the formation of a cell envelope that protects corneocytes in the skin stratum corneum. The higher expression, the better skin barrier function is.

[2] = system: PPARδ; experiment: as above; assay type: cell-based, human; details: gene expression level, keratinocytes treated 24 hours; Control C KGM 100%; concentration differs per example
Protocol: as §1, §2
PPARδ is Peroxisome proliferator-activated receptor, also known as NR1C2. It is a nuclear receptor that in humans is encoded by the PPARD gene. […] Generally, the higher expression, the better skin barrier function is.

[3] = system: ABCA12; experiment: as above; assay type: cell-based, human; details: gene expression level, keratinocytes treated 24 hours; Control C KGM 100%; concentration differs per example
Protocol: as §1, §2
ABCA12 is also known as ATP-binding cassette transporter 12. It is a protein that in humans is encoded by the ABCA12 gene. The ABCA12 gene is active in some types of skin cells. The ABCA12 protein appears to be essential for normal development of the skin, which provides a barrier between the body and its surrounding environment. It plays an important role in transporting lipids (free fat acids) in cells that make up the outermost layer of skin (the epidermis). Generally, the higher expression, the better skin barrier function is.

[4] = system: TNF-α; experiment: TNF-α ELISA, as IL-8 method, PMA-treated human dermal keratinocytes; assay type: cell-based; details: niacinamide in cell culture medium, co-treated with PMA; amount (wt. %) differs per example; Control A medium 100%, Control B PMA 0.0%
From the text: For Control A, human dermal keratinocytes are left untreated. No irritation is expected, and therefore Control A provides a baseline. For Control B, IL-8 is induced in human dermal keratinocytes by applying phorbol 12-myristate 13-acetate (PMA). For all other samples, the human dermal keratinocytes are co-treated with PMA and a composition containing the ingredient of interest. Decreased 11-8 expression reflects the ingredient's anti-irritation activity.
(§3) The following steps were followed: 1. Coat EIA high binding 96-well plate with IL-8 capture antibody overnight at room temperature. 2. Prepare all reagents, standard dilutions, and samples. 3. Wash the coated plate with 350 μL/well of washing buffer 4 times, then adding 300 μL/well of blocking solution incubating 1 hour at room temperature. 4. Repeat washing step with 350 μL/well of wash buffer (4 times). 5. Add 100 μL, of Standard, control, or sample to each well. Cover with a plate sealer, and incubate at room temperature for 2 hours. 6. Aspirate each well and wash, repeating the process 3 times for a total of 4 washes. 7. Add 100 μL, of detection IL-8 antibody to each well. Cover with a new plate sealer, and incubate at room temperature for 2 hours. 8. Aspirate and wash 4 times. 9. Add 100 μL, Biotin-Strepavidin conjugate to each well, incubating 20 minutes at room temperature. 10. Aspirate and wash 4 times. 11. Add 100 μL, substrate Solution to each well. Incubate at room temperature for 20 minutes, making sure to protect the wells from the light. 12. Add 50 μL, of Stop Solution to each well. Data collected—using a colorimeter, absorbance was measured at 450 nanometers (nm) within 30 minutes. Wavelength correction was set to 570 nm.
Samples were tested similarly to the method described above, except that TNF-α was used instead of IL-8.

[5] = system: human dermal keratinocytes; experiment: MTT assay, cell viability of PMA-treated keratinocytes; assay type: cell-based; details: co-treated with PMA, amount (wt. %) differs per example, Control A medium 100%
From the text: The MTT assay is a colorimetric assay for assessing cell viability, cell proliferation, and/or cytotoxicity. NAD(P)H-dependent cellular oxidoreductase enzymes may, under defined conditions, reflect the number of viable cells present. These enzymes are capable of reducing the tetrazolium dye MTT 3-(4,5-dimethylthiazol-2-yl)-2,5-diphenyltetrazolium bromide to insoluble formazan, which has a purple color. MTT assay can also be used to measure cytotoxicity (loss of viable cells) or cytostatic activity (shift from proliferative to resting status) of potential medicinal agents and toxic materials.
Controls A and B described above for the IL-8 Assay were also employed in this test. The mitigating effect of the test samples on the effect of Control B on the keratinocytes was measured. More specifically, while Control B has a negative effect on cell viability, cell proliferation, and/or cytotoxicity, this mitigation of this negative effect was determined by measuring the reduction of MTT.
The following steps were followed: Once the liquid was removed from the wells for the IL-8 Assay described above, 100 μl/well of 0.5 mg/ml of MTT in phenol red-free DMEM (cell culture medium) was added into each of the 96-well plates. After incubating 1 hour at 37° C., all liquid was removed (MTT solution) from the wells of the culture plate. Then 100 μl of DMSO was added to each well to completely dissolve the purple product. Absorption was measured using a plate reader at 550 nm wavelength.

[6] = system: IL-8; experiment: IL-8 ELISA, PMA-induced IL-8 in human dermal keratinocytes; assay type: cell-based; details: niacinamide in cell culture medium, co-treated with PMA; amount (wt. %) differs per example; Control A medium 100%, Control B PMA 0.0%
From the text: as §3, with “Interleukin 8 (IL-8) is a chemokine and proinflammatory cytokine produced by macrophages and other cell types such as epithelial cells. It is secreted from keratinocytes in skin in response to inflammatory stimuli. IL-8 is secreted and is an important mediator of the immune reaction in the innate immune system response. IL-8 overexpressed is a biomarker of skin irritation. […] No irritation is expected, and therefore Control A provides a baseline. […] Decreased 11-8 expression reflects the ingredient's anti-irritation activity. In order to carry out the test method, an assay kit was employed that was obtained from R&D Systems: Human CXCL8/IL-8 Duoset ELISA Development Kit. The” for “The”

**Q.** How did the Involucrin [1] turn out when `NC(=O)c1cccnc1` [Example 37, Niacinamide] was run?
**A.** 1589%

**Q.** What about the PPARδ [2] of the same compound?
**A.** 378%

**Q.** What about the “ABCA12 (%)” value [3] of the same compound?
**A.** 447%

**Q.** For `NC(=O)c1cccnc1` [Example 23, Niacinamide], which “TNF-α Inhibition (%)” value [4] is on record?
**A.** 28.2%

**Q.** With `NC(=O)c1cccnc1` [Example 26, Niacinamide] as the compound, how does the “TNF-α Inhibition (%)” value [4] read?
**A.** 45.6%

**Q.** Which “TNF-α Inhibition (%)” value [4] does the source give for `NC(=O)c1cccnc1` [Example 28, Niacinamide] here?
**A.** 52.7%

**Q.** Which results are given for `NC(=O)c1cccnc1` [Example 38, Niacinamide]?
**A.** Involucrin [1]: 1656%; PPARδ [2]: 863%; ABCA12 (%) [3]: 499%

**Q.** How did the “Cell Viability (%)” value ([5]; niacinamide series) turn out when `NC(=O)c1cccnc1` [Example 29, Niacinamide] was run?
**A.** 97%

**Q.** How did the “TNF-α Inhibition (%)” value [4] turn out when `NC(=O)c1cccnc1` [Example 25, Niacinamide] was run?
**A.** 28.6%

**Q.** Which “IL-8 Inhibition (%)” value [6] does the source give for `NC(=O)c1cccnc1` [Example 22, Niacinamide] here?
**A.** 32.04%

**Q.** For `NC(=O)c1cccnc1` [Example 31, Niacinamide], which “Cell Viability (%)” value ([5]; niacinamide series) is on record?
**A.** 99%

**Q.** `CCCCCCCCCCCCCC(=O)O[C@@H]1[C@@H](C)[C@@]2(O)[C@@H](C=C(CO)C[C@]3(O)C(=O)C(C)=C[C@@H]23)[C@@H]2C(C)(C)[C@]12OC(C)=O` [Control B, phorbol 12-myristate 13-acetate, reference compound] was tested. Which “Cell Viability (%)” value ([5]; avenanthramide series) did it give?
**A.** 95%

**Q.** And the “Cell Viability (%)” value ([5]; niacinamide series)?
**A.** 95%

**Q.** What does the source list for `C=C1CC[C@H](O)C/C1=C/C=C1\CCC[C@]2(C)[C@@H]([C@H](C)CCCC(C)C)CC[C@@H]12` [Comparative 1, Vitamin D3 (cholecalciferol), reference compound]?
**A.** Involucrin [1]: 384%; PPARδ [2]: 752%; ABCA12 (%) [3]: 58%

**Q.** `NC(=O)c1cccnc1` [Example 33, Niacinamide] was tested. Which Involucrin [1] did it give?
**A.** 156%

**Q.** What about the PPARδ [2] of the same compound?
**A.** 82%

**Q.** What about the “ABCA12 (%)” value [3] of the same compound?
**A.** 41%

**Q.** For `NC(=O)c1cccnc1` [Example 27, Niacinamide], which “TNF-α Inhibition (%)” value [4] is on record?
**A.** 45.1%

**Q.** How did the “IL-8 Inhibition (%)” value [6] turn out when `NC(=O)c1cccnc1` [Example 19, Niacinamide] was run?
**A.** 20.86%

**Q.** For `NC(=O)c1cccnc1` [Example 17, Niacinamide], which “IL-8 Inhibition (%)” value [6] is on record?
**A.** 16.53%

**Q.** For `NC(=O)c1cccnc1` [Example 32, Niacinamide], which “Cell Viability (%)” value ([5]; niacinamide series) is on record?
**A.** 87%

**Q.** `NC(=O)c1cccnc1` [Example 24, Niacinamide] was tested. Which “TNF-α Inhibition (%)” value [4] did it give?
**A.** 29.6%

**Q.** How did the Involucrin [1] turn out when `NC(=O)c1cccnc1` [Example 36, Niacinamide] was run?
**A.** 817%

**Q.** And the PPARδ [2]?
**A.** 164%

**Q.** And the “ABCA12 (%)” value [3]?
**A.** 806%

**Q.** With `NC(=O)c1cccnc1` [Example 34, Niacinamide] as the compound, how does the Involucrin [1] read?
**A.** 192%

**Q.** And the PPARδ [2]?
**A.** 88%

**Q.** And the “ABCA12 (%)” value [3]?
**A.** 120%

**Q.** With `NC(=O)c1cccnc1` [Example 18, Niacinamide] as the compound, how does the “IL-8 Inhibition (%)” value [6] read?
**A.** 16.64%

**Q.** What does the source list for `NC(=O)c1cccnc1` [Example 35, Niacinamide]?
**A.** Involucrin [1]: 441%; PPARδ [2]: 136%; ABCA12 (%) [3]: 192%

**Q.** For `NC(=O)c1cccnc1` [Example 21, Niacinamide], which “IL-8 Inhibition (%)” value [6] is on record?
**A.** 33.20%

**Q.** How did the “IL-8 Inhibition (%)” value [6] turn out when `NC(=O)c1cccnc1` [Example 16, Niacinamide] was run?
**A.** 0.0%

**Q.** For `C=C1CC[C@H](O)C/C1=C/C=C1\CCC[C@]2(C)[C@@H]([C@H](C)CCCC(C)C)CC[C@@H]12` [Comparative 3, Vitamin D3 (cholecalciferol), reference compound], which Involucrin [1] is on record?
**A.** 406%

**Q.** And the PPARδ [2]?
**A.** 238%

**Q.** And the “ABCA12 (%)” value [3]?
**A.** 42%

**Q.** For `NC(=O)c1cccnc1` [Example 20, Niacinamide], which “IL-8 Inhibition (%)” value [6] is on record?
**A.** 28.85%

**Q.** Which “Cell Viability (%)” value ([5]; niacinamide series) does the source give for `NC(=O)c1cccnc1` [Example 30, Niacinamide] here?
**A.** 95%

**Q.** Which Involucrin [1] does the source give for `C=C1CC[C@H](O)C/C1=C/C=C1\CCC[C@]2(C)[C@@H]([C@H](C)CCCC(C)C)CC[C@@H]12` [Comparative 2, Vitamin D3 (cholecalciferol), reference compound] here?
**A.** 208%

**Q.** What about the PPARδ [2] of the same compound?
**A.** 334%

**Q.** And the “ABCA12 (%)” value [3]?
**A.** 45%
